According to US8114895B2, “Use of bipyridine compound ‘Caerulomycin A’ derivatives and analogs thereof as immunosuppressive agents” (Council of Science and Industrial Research, priority 2005, dated 2012):

Tests used:
antigen specific T cells = assay: In vivo proliferation of antigen specific T cells (OVA-primed mice injected with drug, splenocytes cultured ex vivo); design: species or system BALB/c mice; settings: for proliferation of cells from antigen-primed animals injected with drug versus animals not administered drug: 25-100 μg/mice/day i.p. for 7 days
Description: FIG. 1: Different groups, each comprising five animals were immunized with OVA, followed by CaeA administration daily for 7 days before mice were sacrificed. Splenocytes (2×10^5 cells/well) were isolated and cultured in vitro with 100 μg/ml OVA and varied doses of CaeA. After 72 h, [^3H]-thymidine was added, and its incorporation was measured 16 h later.
FIG. 2: In another set of experiment, three different groups were immunized with OVA followed by administration of CaeA (25 μg/mice) in one of the group and Alcohol (vehicle control) in another group, daily for 7 days before mice were sacrificed. Splenocytes (2×10^5 cells/well) were isolated and cultured in vitro alone or with OVA 100 and 200 μg/ml (1.2). Each point represents the mean±SEM of triplicate determinations from one of the three representative experiments.
OVA (2 mg/ml) was dissolved in PBS (0.01 M, pH 7.2) and emulsified in Freund's complete adjuvant (FCA). Emulsion (100 μl) was then injected intraperitoneally (i.p.) in 7 groups, comprising 5 BALB/c mice in each set. Four groups of animals were injected intraperitoneally daily with Caerulomycin A (25, 50, 75, 100 μg/100 μl/mice). The control groups were immunized intraperitoneally with 100 μl each of PBS and ethanol-PBS. After seven days, mice were sacrificed and splenocytes were isolated and pooled for in vitro proliferation.
Ovalbumin (3 mg/ml) was dissolved in PBS (pH 7.2) and emulsified in Freund's complete adjuvant (FCA). Emulsion (100 μl) was then injected intraperitoneally (i.p.) in different groups, comprising 5 BALB/c mice in each set. Four groups of animals were injected intraperitoneally daily with caerulomycin A (25, 50, 75, 100 μg/100 μl/mice). The control groups were immunized intraperitoneally with ethanol-PBS.
After seven days, mice were sacrificed and splenocytes were pooled and used for proliferation assays. Splenocytes (2×10^5 cells/well) were cultured with OVA (100 μg/ml) in 200 μl RPMI/FCS-10% medium and with various concentrations of caerulomycin A (0.1-0.0003 μg/ml). The control cultures consisting of splenocytes incubated with different concentrations of caerulomycin A (no OVA), OVA and medium were also kept. After 72 h, the cultures were pulsed with 1 μCi of [^3H]-thymidine and harvested 14 h later. Radioactivity incorporated was measured by liquid scintillation counting and data are expressed as mean counts per minute (cpm).
The mice were administered with different doses of caerulomycin A for 7 days (FIG. 1). The animals were sacrificed and splenocytes were cultured in vitro with antigen and different concentrations of caerulomycin A (0.00625-0.10 μg/ml).

J774 = assay: Expression of B7-1 and B7-2 on J774; type: cell-based
naïve CD4^+ T cells = assay: Proliferation of naïve CD4+ T cells; type: cell-based
Description: Examples establishing the role of Caerulomycin A [isolated from a novel species of Actinoalloteichus] in inducing immunosuppression based on the following: • Splenocytes of BALB/c mice were stimulated with either ConA (1 μg/ml and 2 μg/ml) or LPS (5 μg/ml and 10 μg/ml) and were cultured with different concentrations of Caerulomycin A (0.0003-0.1 μg/ml). After 48 h, the cultures were pulsed with 0.5 μCi of [^3H]-thymidine and harvested 14 h later by automatic cell harvester. Radioactivity incorporated was measured by liquid scintillation counting. • Antigen ovalbumin (100 μg/ml) emulsified in Freund's complete adjuvant was injected in a group consisting of 5 BALB/c mice. […] Radioactivity incorporated was measured by liquid scintillation. The culture supernatants were collected after 48 h and cytokines were measured by ELISA. • Immunosuppressive effect of different doses of Caerulomycin A was monitored on naïve CD4^+ T cells, antigen reactive CD4^+ T cells, Th2 clone and Th1 hybridoma. […] Radioactivity incorporated was measured by liquid scintillation. • Immunosuppressive effect of Caerulomycin A on MLR reaction. […] After 4 days, the cultures were pulsed with 1 μCi of [^3H]-thymidine and harvested 16 h later and radioactivity incorporated was measured by liquid scintillation counting. • In vivo immunosuppressive effect of Caerulomycin A on the proliferation of T cells. […]

D10G4.1 Th2 clones = assay: IL-4 release by Th2 clones; type: cell-based; settings: stimulated with anti-CD3 Ab (0.1 and 0.5 μg/ml) or conalbumin pulsed APC

Q: Which results are given for `COc1cc(/C=N/O)nc(-c2ccccn2)c1` [Caerulomycin A, (E)-4-methoxy-2,2′-bipyridine-6-carbaldehyde oxime]?
A: growth of cells from injected mice versus PBS-ethanol animals (antigen specific T cells; 25 μg/mice/day for 7 days, FIG. 2): significant level of retardation in the growth; proliferation of cells from antigen-primed animals injected with drug versus animals not administered drug (antigen specific T cells; FIG. 1): substantial inhibition; proliferation of cells from antigen-primed animals injected with drug versus animals not administered drug (antigen specific T cells; FIG. 1, listed as caerulomycin A): substantial inhibition in the proliferation; proliferation of cells from treated animals incubated in vitro with drug (antigen specific T cells; cells incubated with 0.10 μg/ml of caerulomycin A, FIG. 1): Nearly complete inhibition; optimum dosage required in vivo (antigen specific T cells; mouse, in vivo): 5.0 mg/kg/body wt; expression of B7-1 (J774): no major change; expression of B7-2 (J774): increased the expression; in vitro proliferation of naïve CD4+ T cells (naïve CD4^+ T cells): suppression; release of IL-4 (D10G4.1 Th2 clones): suppressed the release
